Reference: paper PMC5771047 (Current Neuropharmacology, 2017)
“And” between values parts separate entries of the source, which are not always exact repeats. Identical values can stand only once. Like-named read-outs stand apart in the source and are kept apart here.

Columns and labels:
[1] = mice (n = 5), exposure to Magic Gold smoke (3.6% JWH-018, 5.7% JWH-073); cited from earlier work
[2] = pigs, previous study; cited from earlier work
[3] = for concentration at 6 h: pig, iv, 200 µg/kg BW
[4] = human fatal case, cited from earlier work
[5] = cited from earlier work
[6] = one human decedent of five postmortem cases; cited from earlier work
[7] = pigs, 6 h after single i.v. 200 µg/kg BW

CCCCCn1cc(C(=O)c2cccc3ccccc23)c2ccccc21 [JWH-018, naphthalen-1-yl-(1-pentylindol-3-yl)methanone]
Concentration in brain specimens twenty hours post-exposure [1]: 19 ± 9 ng/g

CCCCCn1cc(C(=O)c2ccc(CC)c3ccccc23)c2ccccc21 [JWH-210, 4-ethylnaphthalen-1-yl-(1-pentylindol-3-yl)methanone]
Serum concentration six hours after administration [2]: 3.1 ± 1.1 ng/mL | concentration at 6 h ([3]; bile): 26 ± 19 ng/g | concentration at 6 h ([3]; brain (cerebellum)): 32 ± 9 ng/g | concentration at 6 h ([3]; brain (cerebrum)): 20 ± 6.8 ng/g | concentration at 6 h ([3]; dura): 1.7 ± 0.8 ng/g | concentration at 6 h ([3]; heart): 19 ± 6.1 ng/g | concentration at 6 h ([3]; kidney (left)): 43 ± 34 ng/g | concentration at 6 h ([3]; kidney (right)): 53 ± 45 ng/g | concentration at 6 h ([3]; liver): 14 ± 6.2 ng/g | concentration at 6 h ([3]; lung (left)): 8.6 ± 4.4 ng/g | concentration at 6 h ([3]; lung (right)): 6.9 ± 2.1 ng/g | concentration at 6 h ([3]; psoas muscle): 20 ± 9.5 ng/g | concentration at 6 h ([3]; skeletal muscle): 21 ± 8 ng/g | concentration at 6 h ([3]; spleen): 11 ± 6.8 ng/g | Detection in vitreous humor (qualitative analysis) [3, 7]: positive results

CCc1ccc(C(=O)c2cn(CCCCC(=O)O)c3ccccc23)c2ccccc12 [JWH-210-COOH, JWH-210-pentanoic acid]
Concentration in kidney specimens, individual cases ([3]; pigs, 6 h after i.v. 200 µg/kg BW JWH-210, detectable in two cases): 0.5 ng/g and 1 ng/g

Cc1ccc(C(=O)c2cn(CCCCCF)c3ccccc23)c2ccccc12 [MAM-2201]
Concentration in adipose tissue ([4]; postmortem interval about four days): 1,535 ng/g | Concentration in brain ([4]; postmortem): 4.3 ng/g | Concentration in heart blood ([4]; postmortem): 12.4 ng/mL | Concentration in kidney ([4]; postmortem): 11.2 ng/g | Concentration in liver ([4]; postmortem): 18.1 ng/g

COc1ccc(C(=O)c2cn(CCCCC(=O)O)c3ccccc23)cc1 [RCS-4-COOH, RCS-4-pentanoic acid]
Concentration in bile fluid, individual pigs ([3]; pigs, 6 h after i.v. 200 µg/kg BW RCS-4, two pigs): 47 ng/g and 154 ng/g

CCCCCc1cc(O)c2c(c1)OC(C)(C)[C@@H]1CCC(C)=C[C@@H]21 [THC, ∆9-tetrahydrocannabinol]
LogP [5]: 6.7 | Serum concentration six hours after administration [2]: 7.1 ± 4.3 ng/mL | Peak concentration in muscle tissue [6]: 40 ng/g | concentration at 6 h ([3]; bile): 77 ± 83 ng/g | concentration at 6 h ([3]; brain (cerebellum)): 24 ± 5.8 ng/g | concentration at 6 h ([3]; brain (cerebrum)): 12 ± 3.8 ng/g | concentration at 6 h ([3]; heart): 17 ± 7 ng/g | concentration at 6 h ([3]; kidney (left)): 24 ± 11 ng/g | concentration at 6 h ([3]; kidney (right)): 21 ± 16 ng/g | concentration at 6 h ([3]; liver): 18 ± 3.7 ng/g | concentration at 6 h ([3]; lung (left)): 61 ± 50 ng/g | concentration at 6 h ([3]; lung (right)): 69 ± 37 ng/g | concentration at 6 h ([3]; psoas muscle): 9.1 ± 3.3 ng/g | concentration at 6 h ([3]; skeletal muscle): 16 ± 0.94 ng/g | concentration at 6 h ([3]; spleen): 7.1 ± 3.8 ng/g | Detection in dura [3, 7]: not detected | Detection in vitreous humor (qualitative analysis) [3, 7]: not detected

hydroxypentyl-JWH-210 [HO-JWH-210]
Concentration in abdominal adipose tissue, individual pig ([3]; pigs, 6 h after i.v. 200 µg/kg BW JWH-210, present in one pig only): 6 ng/g | Concentration in perirenal adipose tissue, individual pigs ([3]; pigs, 6 h after i.v. 200 µg/kg BW JWH-210, present in two pigs only): 4.5 ng/g and 9 ng/g

hydroxypentyl-RCS-4 [HO-RCS-4]
LogP [5]: 4.08 | Concentration in skeletal muscle, individual pigs ([3]; pigs, 6 h after i.v. 200 µg/kg BW RCS-4, only in two pigs): 5.7 ng/g and 1.6 ng/g
